Test results reported in ChEMBL document CHEMBL1201862, “PubChem BioAssay data set” (2004).
Activity calls are given as the source filed them. Cut-off read from the data, not from the text of the source, for most assays here: actives have a measured EC50 and inactives only a lower limit.

Columns and labels:
[1] = molecular target: T1, Zinc finger protein mex-5 (Caenorhabditis elegans, UniProt Q9XUB2); test: MEX-5/TCR-2 RNA interaction inhibitors, dose response, biochemical, C. elegans, fluorescence polarization (AID 1960)
T1 sequence (Q9XUB2 whole entry): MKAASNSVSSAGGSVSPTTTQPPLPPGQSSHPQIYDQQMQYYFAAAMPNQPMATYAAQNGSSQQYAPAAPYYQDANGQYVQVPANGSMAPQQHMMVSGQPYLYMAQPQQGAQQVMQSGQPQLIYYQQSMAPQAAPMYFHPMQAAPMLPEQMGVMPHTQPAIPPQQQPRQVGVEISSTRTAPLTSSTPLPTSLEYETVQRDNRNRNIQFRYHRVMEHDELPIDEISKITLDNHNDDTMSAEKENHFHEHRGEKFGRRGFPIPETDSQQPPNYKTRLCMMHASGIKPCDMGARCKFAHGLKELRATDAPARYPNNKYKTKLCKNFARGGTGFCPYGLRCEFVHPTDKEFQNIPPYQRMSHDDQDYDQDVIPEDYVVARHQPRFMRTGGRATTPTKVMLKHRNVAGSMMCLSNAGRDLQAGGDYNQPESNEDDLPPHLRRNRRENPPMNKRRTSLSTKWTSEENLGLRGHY

[2] = molecular target: Genome polyprotein (dengue virus type 2, UniProt P29990); test: Dengue-2 NS5 methyltransferase inhibitors, primary screen, biochemical, confirmation dose response (AID 588689); type: functional
Sequence of Genome polyprotein (P29990 2492-3391 limits assumed): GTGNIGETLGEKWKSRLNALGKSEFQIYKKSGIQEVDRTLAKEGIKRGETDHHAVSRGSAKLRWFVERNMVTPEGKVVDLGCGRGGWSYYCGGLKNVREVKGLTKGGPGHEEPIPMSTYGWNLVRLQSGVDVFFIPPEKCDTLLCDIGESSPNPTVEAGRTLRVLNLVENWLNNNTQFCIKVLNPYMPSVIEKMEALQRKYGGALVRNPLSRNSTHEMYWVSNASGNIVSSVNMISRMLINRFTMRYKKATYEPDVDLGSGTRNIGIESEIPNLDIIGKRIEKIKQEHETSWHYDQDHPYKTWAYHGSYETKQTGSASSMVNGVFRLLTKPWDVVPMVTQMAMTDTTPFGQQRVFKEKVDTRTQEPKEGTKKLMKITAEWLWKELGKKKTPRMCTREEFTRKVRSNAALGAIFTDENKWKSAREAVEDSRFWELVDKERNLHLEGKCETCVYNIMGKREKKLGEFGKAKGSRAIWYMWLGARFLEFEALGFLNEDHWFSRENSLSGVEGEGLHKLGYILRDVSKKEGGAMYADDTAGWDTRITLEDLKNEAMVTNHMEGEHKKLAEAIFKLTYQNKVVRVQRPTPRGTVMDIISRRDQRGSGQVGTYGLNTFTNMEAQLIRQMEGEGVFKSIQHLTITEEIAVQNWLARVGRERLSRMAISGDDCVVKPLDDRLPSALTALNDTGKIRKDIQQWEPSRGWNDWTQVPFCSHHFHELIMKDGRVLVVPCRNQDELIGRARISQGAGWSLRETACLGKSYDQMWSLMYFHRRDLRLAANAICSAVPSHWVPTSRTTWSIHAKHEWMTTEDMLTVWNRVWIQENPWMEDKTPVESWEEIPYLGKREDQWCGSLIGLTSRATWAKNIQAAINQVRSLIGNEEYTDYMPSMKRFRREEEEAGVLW

[3] = molecular target: T2, RNA-binding protein pos-1 (Caenorhabditis elegans, UniProt G5EF15); test: inhibitors of POS-1/mex-3 RNA binding, dose response, biochemical, fluorescence polarization (AID 1964);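 note: purified POS-1 fused to maltose binding protein made in E. coli; potency of compounds blocking POS-1 binding to fluorescent RNA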
T2 sequence (G5EF15 whole entry): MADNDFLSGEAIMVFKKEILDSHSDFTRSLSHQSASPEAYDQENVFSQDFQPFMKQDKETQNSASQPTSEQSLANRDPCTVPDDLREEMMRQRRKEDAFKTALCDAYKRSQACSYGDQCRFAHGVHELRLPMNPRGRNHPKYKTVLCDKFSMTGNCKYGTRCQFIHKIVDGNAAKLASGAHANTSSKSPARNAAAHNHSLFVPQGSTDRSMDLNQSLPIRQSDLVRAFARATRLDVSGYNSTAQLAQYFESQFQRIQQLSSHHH

[4] = NIH-3T3 fibroblast cytotoxicity, dose response, cytotoxicity control, cell-based, fluorescence, Alamar Blue, secondary assay (AID 2327); type: functional;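 note: NIH-3T3 mouse fibroblasts cultured with fluconazole at 8 µg/mL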
[5] = C. albicans growth with fluconazole, confirmation, fluorescence, retest (AID 2467); type: functional, cell-based
[6] = test system: Streptococcus sp. 'group A'; test: growth inhibition of control SK(-) GAS strain, dose response, counter-screen for streptokinase expression inhibitor project, luminescence, kanamycin, BacTiterGlo, confirmation (AID 1900); type: functional, organism-based
[7] = test system: Streptococcus; test: Group A Streptococcus viability loss, dose response, counter-screen for streptokinase expression inhibitor project, luminescence, BacTiterGlo (AID 1915); type: functional, organism-based;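 note: potency for reduction of bacterial viability or growth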
[8] = molecular target: T3, Streptokinase A (Streptococcus pyogenes serotype M1, UniProt P10520); test: S. pyogenes streptokinase expression inhibitors, potency, dose response, plasminogen activation absorbance, OD405 (AID 1914); type: functional, Streptococcus pyogenes M1 GAS;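 note: secreted streptokinase activity via plasminogen activation per viability signal from cell pellet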
T3 sequence (P10520 whole entry): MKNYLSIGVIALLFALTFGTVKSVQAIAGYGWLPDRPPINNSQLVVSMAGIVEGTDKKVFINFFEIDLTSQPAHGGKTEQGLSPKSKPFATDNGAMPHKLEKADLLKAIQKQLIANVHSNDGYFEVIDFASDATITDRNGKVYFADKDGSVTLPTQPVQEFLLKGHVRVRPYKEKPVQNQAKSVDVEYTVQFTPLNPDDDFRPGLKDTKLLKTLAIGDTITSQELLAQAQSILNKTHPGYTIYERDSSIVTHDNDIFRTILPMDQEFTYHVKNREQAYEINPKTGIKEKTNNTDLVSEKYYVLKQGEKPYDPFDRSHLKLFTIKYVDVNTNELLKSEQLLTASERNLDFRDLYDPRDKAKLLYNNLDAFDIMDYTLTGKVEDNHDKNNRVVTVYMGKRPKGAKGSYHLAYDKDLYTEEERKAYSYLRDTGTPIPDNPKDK

[9] = P. falciparum Dd2 growth inhibitors, dose response, SYBR Green, cherry-picked samples (AID 1159567); type: functional, cell-based
[10] = molecular target: Heat shock protein HSP 90-alpha (Homo sapiens, UniProt P07900); type: functional, organism-based
[11] = cytotoxicity toward NIH3T3 fibroblasts, dose response, counter-screen, cell-based, ATP luminescence, mouse fibroblasts (AID 2010); type: functional;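 note: cells exposed to compound for about 90 hours before reading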
[12] = molecular target: T4, Replicative DNA helicase DnaB (Mycobacterium tuberculosis, UniProt P9WMR3); test: DnaB intein splicing inhibitors, dose response, biochemical, cell-free fluorescence (AID 449749); type: functional
T4 sequence (P9WMR3 whole entry): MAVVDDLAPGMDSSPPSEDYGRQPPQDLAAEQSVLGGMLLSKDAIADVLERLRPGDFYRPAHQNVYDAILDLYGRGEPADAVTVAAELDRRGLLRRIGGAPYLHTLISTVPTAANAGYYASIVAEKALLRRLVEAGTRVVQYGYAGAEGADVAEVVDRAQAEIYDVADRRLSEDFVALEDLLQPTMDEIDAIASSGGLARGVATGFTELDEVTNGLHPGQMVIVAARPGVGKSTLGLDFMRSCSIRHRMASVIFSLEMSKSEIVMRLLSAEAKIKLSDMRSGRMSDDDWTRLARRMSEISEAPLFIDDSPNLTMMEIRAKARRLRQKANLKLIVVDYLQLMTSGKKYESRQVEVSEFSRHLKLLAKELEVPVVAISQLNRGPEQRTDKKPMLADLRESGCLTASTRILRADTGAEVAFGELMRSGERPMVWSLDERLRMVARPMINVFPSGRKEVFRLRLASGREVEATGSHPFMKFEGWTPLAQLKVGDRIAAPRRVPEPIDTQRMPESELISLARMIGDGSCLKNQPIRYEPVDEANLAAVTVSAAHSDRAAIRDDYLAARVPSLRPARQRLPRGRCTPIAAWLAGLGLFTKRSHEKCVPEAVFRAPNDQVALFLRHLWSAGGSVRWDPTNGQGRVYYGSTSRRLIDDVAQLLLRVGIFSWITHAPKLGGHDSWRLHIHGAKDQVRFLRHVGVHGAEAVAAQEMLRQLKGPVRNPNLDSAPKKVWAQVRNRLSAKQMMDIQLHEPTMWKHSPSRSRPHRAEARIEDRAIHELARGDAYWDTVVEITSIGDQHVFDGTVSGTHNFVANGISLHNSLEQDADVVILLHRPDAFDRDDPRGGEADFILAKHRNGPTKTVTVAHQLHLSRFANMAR

[13] = molecular target: Large T antigen (Simian virus 40, UniProt P03070); type: functional, Betapolyomavirus macacae;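 note: Confirmatory-stage PubChem screen for compounds that inhibit SV40 T antigen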
Sequence of Large T antigen (P03070 whole entry): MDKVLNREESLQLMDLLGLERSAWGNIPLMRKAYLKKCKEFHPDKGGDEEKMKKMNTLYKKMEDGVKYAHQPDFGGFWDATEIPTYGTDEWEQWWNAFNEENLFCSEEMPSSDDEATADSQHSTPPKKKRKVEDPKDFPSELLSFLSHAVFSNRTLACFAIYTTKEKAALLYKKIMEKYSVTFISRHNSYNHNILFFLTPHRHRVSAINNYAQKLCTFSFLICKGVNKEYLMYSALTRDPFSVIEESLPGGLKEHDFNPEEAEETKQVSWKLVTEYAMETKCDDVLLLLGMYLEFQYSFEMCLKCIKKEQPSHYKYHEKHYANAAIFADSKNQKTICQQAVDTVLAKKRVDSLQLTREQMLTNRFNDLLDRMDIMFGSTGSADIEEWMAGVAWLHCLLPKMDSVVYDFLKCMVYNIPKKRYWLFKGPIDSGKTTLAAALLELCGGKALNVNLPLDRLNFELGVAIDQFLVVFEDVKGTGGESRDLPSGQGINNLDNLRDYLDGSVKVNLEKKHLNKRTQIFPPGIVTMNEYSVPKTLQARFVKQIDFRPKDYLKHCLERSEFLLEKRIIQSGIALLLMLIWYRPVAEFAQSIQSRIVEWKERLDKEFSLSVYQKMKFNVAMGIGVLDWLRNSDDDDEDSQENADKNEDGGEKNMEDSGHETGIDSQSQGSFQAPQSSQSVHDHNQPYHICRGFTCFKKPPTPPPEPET

[14] = molecular target: T5, Heat shock factor protein 1 (Mus musculus, UniProt P38532); test: HSF1 potentiators in luciferase reporter cells, confirmation, cell-based, NIH3T3, luminescence, dose retest (AID 435004); type: functional;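 note: stress induced by proteasome inhibitor MG132 added 30 min after compound; luciferase reporter driven by HSF1 response element in NIH3T3 cells; actives raise luminescence as potentiators of the MG132 stress response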
T5 sequence (P38532 whole entry): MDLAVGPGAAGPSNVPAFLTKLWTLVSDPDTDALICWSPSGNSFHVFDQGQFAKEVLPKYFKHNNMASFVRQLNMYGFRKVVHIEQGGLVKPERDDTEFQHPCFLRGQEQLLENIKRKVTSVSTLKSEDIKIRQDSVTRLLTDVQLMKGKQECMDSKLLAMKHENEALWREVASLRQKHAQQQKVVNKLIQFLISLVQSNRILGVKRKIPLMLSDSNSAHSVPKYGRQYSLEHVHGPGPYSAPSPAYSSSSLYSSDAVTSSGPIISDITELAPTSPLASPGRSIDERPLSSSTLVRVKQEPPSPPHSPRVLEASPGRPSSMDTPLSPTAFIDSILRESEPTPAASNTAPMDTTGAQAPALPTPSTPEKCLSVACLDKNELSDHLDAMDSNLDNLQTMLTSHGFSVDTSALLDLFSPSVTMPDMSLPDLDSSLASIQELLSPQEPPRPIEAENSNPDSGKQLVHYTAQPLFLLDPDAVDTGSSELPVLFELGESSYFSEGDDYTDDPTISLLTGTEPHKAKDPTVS

[15] = molecular target: T6, Protein RecA (Mycobacterium tuberculosis, UniProt P9WHJ3); test: Fluorescence Cell-Free Homogeneous Dose Retest to Identify Inhibitors of RecA-Intein Splicing Activity. [Related pubchem assays (depositor defined):AID2097, AID2223, AID489010, AID492950]; type: functional
T6 sequence (P9WHJ3 whole entry): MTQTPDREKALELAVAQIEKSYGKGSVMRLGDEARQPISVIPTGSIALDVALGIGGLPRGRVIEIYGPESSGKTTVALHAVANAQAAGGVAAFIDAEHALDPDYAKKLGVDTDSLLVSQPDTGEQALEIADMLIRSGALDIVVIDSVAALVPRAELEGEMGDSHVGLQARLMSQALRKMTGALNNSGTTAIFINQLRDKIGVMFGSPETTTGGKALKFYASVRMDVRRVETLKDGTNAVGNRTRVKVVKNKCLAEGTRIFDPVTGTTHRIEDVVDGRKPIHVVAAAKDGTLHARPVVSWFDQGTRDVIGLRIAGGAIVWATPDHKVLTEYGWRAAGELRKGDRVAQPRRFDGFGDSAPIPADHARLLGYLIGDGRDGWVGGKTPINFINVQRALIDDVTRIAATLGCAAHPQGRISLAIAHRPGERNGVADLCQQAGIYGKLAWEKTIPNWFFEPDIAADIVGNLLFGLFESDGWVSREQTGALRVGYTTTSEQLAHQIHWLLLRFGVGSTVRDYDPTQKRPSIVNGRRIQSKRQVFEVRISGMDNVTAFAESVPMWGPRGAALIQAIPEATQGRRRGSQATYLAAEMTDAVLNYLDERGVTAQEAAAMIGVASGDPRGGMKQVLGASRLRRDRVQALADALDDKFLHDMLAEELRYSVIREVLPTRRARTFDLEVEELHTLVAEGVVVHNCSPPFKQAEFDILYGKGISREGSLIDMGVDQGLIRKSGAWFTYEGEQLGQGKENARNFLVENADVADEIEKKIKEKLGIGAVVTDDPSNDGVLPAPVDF

[16] = inhibitors of intracellular T. cruzi replication, confirmation, NIH3T3 host cells, beta-gal luminescence (AID 2044); type: functional, cell-based;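 note: intracellular parasites grown in NIH/3T3 mouse fibroblasts as host cells; luminescent beta-galactosidase reporter signal from transgenic T. cruzi replicating inside host cells; inhibitors lower the luminescence signal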
[17] = molecular target: Induced myeloid leukemia cell differentiation protein Mcl-1 (Homo sapiens, UniProt Q07820); type: functional
Sequence of Induced myeloid leukemia cell differentiation protein Mcl-1 (Q07820 whole entry): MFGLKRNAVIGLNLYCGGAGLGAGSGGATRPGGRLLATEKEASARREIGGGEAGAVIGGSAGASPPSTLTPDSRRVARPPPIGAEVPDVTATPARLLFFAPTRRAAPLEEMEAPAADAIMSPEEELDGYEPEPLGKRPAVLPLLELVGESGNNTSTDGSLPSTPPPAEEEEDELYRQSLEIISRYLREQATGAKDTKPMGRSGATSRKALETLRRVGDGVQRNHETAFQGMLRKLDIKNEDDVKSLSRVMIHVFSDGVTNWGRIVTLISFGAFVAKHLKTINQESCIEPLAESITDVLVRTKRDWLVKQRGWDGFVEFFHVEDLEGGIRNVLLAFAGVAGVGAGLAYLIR

[18] = molecular target: Nonstructural protein 1 (Influenza A virus, UniProt Q194T2); type: functional, Influenza A virus (A/California/07/2009(H1N1))
Sequence of Nonstructural protein 1 (Q194T2 whole entry, the tested form may be a part): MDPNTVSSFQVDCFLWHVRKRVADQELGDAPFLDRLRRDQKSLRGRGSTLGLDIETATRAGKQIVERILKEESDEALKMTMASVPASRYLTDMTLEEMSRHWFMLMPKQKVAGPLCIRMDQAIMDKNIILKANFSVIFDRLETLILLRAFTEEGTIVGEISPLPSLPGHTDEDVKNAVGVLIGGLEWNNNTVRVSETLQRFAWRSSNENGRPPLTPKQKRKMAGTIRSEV

[19] = ZM109 Env clade C HIV-1 fusion inhibitors, dose response, HeLa effector, CEM target cells, luciferase, cherry-pick (AID 652058); type: functional, cell-based

Compound: CC1(OC(=O)c2ccco2)C(=O)C=C2C=C(C3CC3)OC=C2C1=O (configuration not stated)
- EC50 [1]: 18.3 µM (active)
- IC50 [2]: > 100 µM (active)
- EC50 [3]: 20.2 µM (active)

Compound: Cc1ccc(N2CCN(C3=NC(=O)/C(=C\c4c[nH]nc4-c4ccccc4)S3)CC2)cc1
- EC50 [4]: > 150 µM (inactive)
- EC50 [5]: 8.34 µM (active)

Compound: O=C(NNC(=S)NC(=O)c1ccccc1)c1ccc([N+](=O)[O-])cc1
- EC50 [4]: > 160 µM (inactive)
- EC50 [5]: 1.46 µM (active)
- EC50 [6]: 4.22 µM (active)
- EC50 [7]: 15.5 µM (active)
- EC50 [8]: > 150 µM (not active)

Compound: CC(=O)c1ccc(NC(=O)Nc2cccc3ccccc23)cc1
- EC50 [4]: 19.1 µM (inconclusive)
- EC50 [5]: > 38 µM (not active)

Compound: O=C(C1CCCC1)N1CC[C@@H]2[C@H]1c1cc(C3=CCCCC3)ccc1N[C@@H]2CO
- AC50 [9]: 2.76 µM (active)

Compound: O=C(O)c1cccc2c1Cc1cc(Cl)ccc1-2
- AC50 [10]: 0.723 µM (active)

Compound: C=C[S+]([O-])c1sc(Cl)c(N2CCOCC2)c1[N+](=O)[O-] (configuration not stated)
- EC50 [11]: 3.08 µM (active)
- AC50 [12]: 22.2 µM (active)
- IC50 [13]: 9.77 µM (active)
- EC50 [14]: 3.36 µM (inconclusive)
- EC50 [15]: 18.8 µM (active)
- EC50 [16]: 2.99 µM (active)

Compound: Cc1ccc(Sc2ncccc2C(=O)NCc2cc([N+](=O)[O-])ccc2O)c(C)c1
- EC50 [4]: > 150 µM (inactive)
- EC50 [5]: 1.73 µM (active)

Compound: O=C(O)/C=C/C(=O)c1ccc2c(c1)NC(=O)CO2
- IC50 [2]: > 100 µM (active)

Compound: CCN(CC)c1ccc(NC(=O)CCNC(=O)c2ccco2)cc1
- IC50 [13]: 6.69 µM (active)
- IC50 [17]: 9.57 µM (not active)

Compound: COc1ccc2c(c1)OC[C@H]1[C@H]2N2C(=O)c3cc(Br)ccc3NC(=O)[C@@]2(C)[C@H]1c1ccccc1
- AC50 [10]: 0.837 µM (active)

Compound: Cc1noc(NC(=O)c2ccc(Cl)c(Cl)c2)c1Cl
- EC50 [4]: > 150 µM (inactive)
- EC50 [5]: 0.591 µM (active)

Compound: OCc1ccnc2c(O)cccc12
- EC50 [11]: > 30 µM (not active)
- EC50 [4]: 79.8 µM (active)
- EC50 [5]: > 38 µM (not active)
- EC50 [16]: 3.36 µM (active)
- IC50 [18]: 10.2 µM (active)

Compound: O=C(C[C@@H]1C=C[C@@H](NC(=O)c2ccccc2)[C@H](CO)O1)NCc1ccc(Oc2ccccc2)cc1
- AC50 [19]: 38.2 µM (active)

Compound: Cc1nn(-c2ccccc2)c(Cl)c1/C=C1\SC(=S)N(CCCCCC(=O)O)C1=O
- IC50 [2]: 41.4 µM (active)
- AC50 [12]: 4.93 µM (active)
- EC50 [15]: 14.2 µM (active)
- EC50 [6]: 5.26 µM (active)
- EC50 [7]: 11.2 µM (active)
- EC50 [8]: 40.7 µM (inconclusive)

Compound: CC(=NNC(=S)N1CC2CCC(CC2)C1)c1cnccn1
- AC50 [10]: 4.43 µM (active)
- IC50 [18]: 3.16 µM (active)
